Experimental findings from ChEMBL document CHEMBL1130616, “Synthesis and biological activity of glutamic acid derivatives” (Bioorg Med Chem Lett, 1998) are described below.

A word on the EC50: it is the concentration needed to bring the measured effect to its halfway point. For orientation: Emax means the size of the effect at its maximum, as opposed to the concentration needed.

Format in all cases: functional
The species entered for test [1] is Rattus norvegicus. Description: Effective concentration by measuring IP1 accumulation using rat fore brain synaptoneurosomes.
Test [2] is filed under the species Rattus norvegicus. Description: Effective concentration by measuring IP2 accumulation using rat fore brain synaptoneurosomes.
The species entered for test [3] is Rattus norvegicus. Description: Emax by measuring IP1 accumulation using rat fore brain synaptoneurosomes.
The species entered for test [4] is Rattus norvegicus. Description: Emax by measuring IP2 accumulation using rat fore brain synaptoneurosomes.

On to `C[C@@](N)(C(=O)O)c1ccc(C(=O)O)cc1.N[C@@]1(C(=O)O)CC[C@@H](C(=O)O)C1`, for which the EC50 in the test filed under Rattus norvegicus [1] is 109 µM; in the test filed under Rattus norvegicus [2], 224 µM. For the same molecule, the Emax in the test filed under Rattus norvegicus [3] is 269%; in the test filed under Rattus norvegicus [4], 643%.

`N[C@@H](CC(C=O)CCCCN1C(=O)c2ccccc2C1=O)C(=O)O.N[C@@]1(C(=O)O)CC[C@@H](C(=O)O)C1` (some centres undefined): the EC50 was determined as 37 µM in the test filed under Rattus norvegicus [1] and 79 µM in the test listed under Rattus norvegicus [2]. Also, the Emax in the test listed under Rattus norvegicus [3] is 264%; in the test filed under Rattus norvegicus [4], 543%.

With `C[C@@](N)(C(=O)O)c1ccc(C(=O)O)cc1.N[C@@H](Cn1oc(=O)[nH]c1=O)C(=O)O`, the EC50 was found to be 0.63 µM in the test listed under Rattus norvegicus [1] and 1.34 µM in the test listed under Rattus norvegicus [2]. Moreover, the Emax in the test filed under Rattus norvegicus [3] turned out to be 225%; in the test filed under Rattus norvegicus [4], 358%.

As to `N[C@@H](CC(C=O)CCCCN1C(=O)c2ccccc2C1=O)C(=O)O.N[C@@H](Cn1oc(=O)[nH]c1=O)C(=O)O` (some centres undefined), the 50% effective concentration (EC50) in the test listed under Rattus norvegicus [1] worked out at 0.14 µM; in the test listed under Rattus norvegicus [2], 0.27 µM. In addition, the values for the Emax in the test filed under Rattus norvegicus [3] and in the test listed under Rattus norvegicus [4] were 216% and 359%, respectively.

Regarding `N[C@@]1(C(=O)O)CC[C@@H](C(=O)O)C1`, the EC50 in the test filed under Rattus norvegicus [1] came to 17 µM; in the test filed under Rattus norvegicus [2], 38 µM. For the same molecule, the Emax in the test listed under Rattus norvegicus [3] was 284%; in the test filed under Rattus norvegicus [4], 700%.

On to `N[C@@H](Cn1oc(=O)[nH]c1=O)C(=O)O` [QUISQUALATE], for which the EC50 in the test filed under Rattus norvegicus [1] is 0.1 µM; in the test filed under Rattus norvegicus [2], 0.32 µM. Moreover, the Emax turned out to be 240% in the test filed under Rattus norvegicus [3] and 524% in the test listed under Rattus norvegicus [4].
